Measurements: US8481540B2, “Inhibitors of bruton's tyrosine kinase” (Hoffmann-La Roche Inc., priority 2010, dated 2013)
Like-named read-outs stand apart in the source and are kept apart here.

What was measured:
B cells in human blood = assay: Inhibition of B cell activation in whole blood measured by CD69 expression; format: cell-based; conditions: read-out: Human Whole Blood
In short: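 Heparinised human whole blood was preincubated with compound (nine-point, three-fold dilutions) for 30 min at 37 °C. It was then stimulated with 50 μg/ml goat F(ab′)2 anti-human IgM for 20 hours. CD20/CD69 staining, red-cell lysis and flow cytometry gave percent CD69-positive cells, from which IC50 values were calculated.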

[1] = CD69-positive, CD20-positive cells after anti-IgM stimulation, human whole blood, 20 hours

Molecule `Cn1nc(-c2cccc(-n3ncc4cc(C(C)(C)C)cc(F)c4c3=O)c2CO)cc(Nc2cnc(CNC3CCC3)cn2)c1=O` [I-35, 6-tert-Butyl-2-{3-[5-(5-cyclobutylaminomethyl-pyrazin-2-ylamino)-1-methyl-6-oxo-1,6-dihydro-pyridazin-3-yl]-2-hydroxymethyl-phenyl}-8-fluoro-2H-phthalazin-1-one] has a melting point of 163 to 167 °C and an IC50 (B cells in human blood; [1]) of 74 nM.
For `Cn1nc(Nc2cc(-c3cccc(-n4ncc5cc(C(C)(C)C)cc(F)c5c4=O)c3CO)nn(C)c2=O)cc1CN1CCC1` [I-58], the melting point was 214 to 217 °C and the IC50 (B cells in human blood; [1]) was 2 nM.
Molecule `CN(C)CC(C)(C)Oc1cnc(Nc2cc(-c3cccc(-n4ncc5cc(C(C)(C)C)cc(F)c5c4=O)c3CO)nn(C)c2=O)cn1` [I-38, 6-tert-Butyl-2-(3-{5-[5-(2-dimethylamino-1,1-dimethyl-ethoxy)-pyrazin-2-ylamino]-1-methyl-6-oxo-1,6-dihydro-pyridazin-3-yl}-2-hydroxymethyl-phenyl)-8-fluoro-2H-phthalazin-1-one] has a melting point of 235 to 240 °C and an IC50 (B cells in human blood; [1]) of 12 nM.
In the case of `CN1CCn2nc(Nc3cc(-c4cccc(-n5ncc6cc(C(C)(C)C)cc(F)c6c5=O)c4CO)nn(C)c3=O)cc2C1` [I-59], the melting point is reported as 188 to 193 °C and the IC50 (B cells in human blood; [1]) is reported as 5 nM.
`CCNC(C)(C)c1ccc(Nc2cc(-c3cccc(-n4ncc5cc(C(C)(C)C)cc(F)c5c4=O)c3CO)nn(C)c2=O)nc1` [I-1, 6-tert-butyl-2-(3-{5-[5-(1-ethylamino-1-methyl-ethyl)-pyridin-2-ylamino]-1-methyl-6-oxo-1,6-dihydro-pyridazin-3-yl}-2-hydroxymethyl-phenyl)-8-fluoro-2H-phthalazin-1-one] showed a melting point of 229 to 233 °C and an IC50 (B cells in human blood; [1]) of 19 nM.
`Cn1nc(-c2cccc(-n3ncc4cc(C(C)(C)C)cc(F)c4c3=O)c2CO)cc(Nc2cc3n(n2)CCN(C2COC2)C3)c1=O` [I-60] gave a melting point of 180 to 185 °C and an IC50 (B cells in human blood; [1]) of 4 nM.
For `CN1CCN(Cc2cnc(Nc3cc(-c4cccc(-n5ncc6cc(C(C)(C)C)cc(F)c6c5=O)c4CO)nn(C)c3=O)cn2)CC1` [I-37, 6-tert-Butyl-8-fluoro-2-(2-hydroxymethyl-3-{1-methyl-5-[5-(4-methyl-piperazin-1-ylmethyl)-pyrazin-2-ylamino]-6-oxo-1,6-dihydro-pyridazin-3-yl}-phenyl)-2H-phthalazin-1-one], the melting point was 215 to 218 °C and the IC50 (B cells in human blood; [1]) was 84 nM.
With `COC1CN(Cc2ccc(Nc3cc(-c4cccc(-n5ncc6cc(C(C)(C)C)cc(F)c6c5=O)c4CO)nn(C)c3=O)nc2)C1` [I-4, 6-tert-Butyl-8-fluoro-2-(2-hydroxymethyl-3-{5-[5-(3-methoxy-azetidin-1-ylmethyl)-pyridin-2-ylamino]-1-methyl-6-oxo-1,6-dihydro-pyridazin-3-yl}-phenyl)-2H-phthalazin-1-one] the melting point was 140 to 142 °C and the IC50 (B cells in human blood; [1]) was 122 nM.
`CN1CCC(c2ccc(Nc3cc(-c4cccc(-n5ncc6cc(C(C)(C)C)cc(F)c6c5=O)c4CO)nn(C)c3=O)nn2)CC1` [I-40, 6-tert-Butyl-8-fluoro-2-(2-hydroxymethyl-3-{1-methyl-5-[6-(1-methyl-piperidin-4-yl)-pyridazin-3-ylamino]-6-oxo-1,6-dihydro-pyridazin-3-yl}-phenyl)-2H-phthalazin-1-one] gave a melting point of 260 to 265 °C and an IC50 (B cells in human blood; [1]) of 44 nM.
`CN(C)CC(C)(C)Oc1ccc(Nc2cc(-c3cccc(-n4ncc5cc(C(C)(C)C)cc(F)c5c4=O)c3CO)nn(C)c2=O)nn1` [I-39, 6-tert-Butyl-2-(3-{5-[6-(2-dimethylamino-1,1-dimethyl-ethoxy)-pyridazin-3-ylamino]-1-methyl-6-oxo-1,6-dihydro-pyridazin-3-yl}-2-hydroxymethyl-phenyl)-8-fluoro-2H-phthalazin-1-one] showed a melting point of 140 to 145 °C and an IC50 (B cells in human blood; [1]) of 21 nM.
Work on `CCN1CCN(c2ccc(Nc3cc(-c4cccc(-n5ncc6cc(C(C)(C)C)cc(F)c6c5=O)c4CO)nn(C)c3=O)nc2)CC1` [I-69, 6-tert-Butyl-2-(3-{5-[5-(4-ethyl-piperazin-1-yl)-pyridin-2-ylamino]-1-methyl-6-oxo-1,6-dihydro-pyridazin-3-yl}-2-hydroxymethyl-phenyl)-8-fluoro-2H-phthalazin-1-one] yielded a melting point of 245 to 247 °C and an IC50 (B cells in human blood; [1]) of 18 nM.
With `CN(C)CC(C)(C)Oc1ccc(Nc2cc(-c3cccc(-n4ncc5cc(C(C)(C)C)cc(F)c5c4=O)c3CO)nn(C)c2=O)nc1` [I-6, 6-tert-Butyl-2-(3-{5-[5-(2-dimethylamino-1,1-dimethyl-ethoxy)-pyridin-2-ylamino]-1-methyl-6-oxo-1,6-dihydro-pyridazin-3-yl}-2-hydroxymethyl-phenyl)-8-fluoro-2H-phthalazin-1-one] the melting point was 136 to 144 °C and the IC50 (B cells in human blood; [1]) was 31 nM.
`CN1C[C@@H]2C[C@H]1CN2Cc1ccc(Nc2cc(-c3cccc(-n4ncc5cc(C(C)(C)C)cc(F)c5c4=O)c3CO)nn(C)c2=O)nc1` [I-43, 6-tert-Butyl-8-fluoro-2-(2-hydroxymethyl-3-{1-methyl-5-[5-((1S,4S)-5-methyl-2,5-diaza-bicyclo[2.2.1]hept-2-ylmethyl)-pyridin-2-ylamino]-6-oxo-1,6-dihydro-pyridazin-3-yl}-phenyl)-2H-phthalazin-1-one] gave a melting point of 183 to 186 °C and an IC50 (B cells in human blood; [1]) of 41 nM.
Molecule `Cn1nc(-c2cccc(-n3ncc4cc(C(C)(C)C)cc(F)c4c3=O)c2CO)cc(Nc2ccc(S(C)(=O)=O)cn2)c1=O` [I-3, 6-tert-Butyl-8-fluoro-2-[2-hydroxymethyl-3-[5-(5-methanesulfonyl-pyridin-2-ylamino)-1-methyl-6-oxo-1,6-dihydro-pyridazin-3-yl]-phenyl}-2H-phthalazin-1-one] has a melting point of 225 to 230 °C and an IC50 (B cells in human blood; Homo sapiens, 20 h) of 45 nM.
Molecule `CN1[C@@H]2CC[C@H]1CN(Cc1ccc(Nc3cc(-c4cccc(-n5ncc6cc(C(C)(C)C)cc(F)c6c5=O)c4CO)nn(C)c3=O)nc1)C2` [I-5, 6-tert-Butyl-8-fluoro-2-(2-hydroxymethyl-3-{1-methyl-5-[5-(8-methyl-3,8-diaza-bicyclo[3.2.1]oct-3-ylmethyl)-pyridin-2-ylamino]-6-oxo-1,6-dihydro-pyridazin-3-yl}-phenyl)-2H-phthalazin-1-one] has a melting point of 162 to 165 °C and an IC50 (B cells in human blood; [1]) of 25 nM.
Molecule `CN(C)Cc1ccc(Nc2cc(-c3cccc(-n4ncc5cc(C(C)(C)C)cc(F)c5c4=O)c3CO)nn(C)c2=O)nc1` [I-8, 6-tert-Butyl-2-{3-[5-(5-dimethylaminomethyl-pyridin-2-ylamino)-1-methyl-6-oxo-1,6-dihydro-pyridazin-3-yl]-2-hydroxymethyl-phenyl}-8-fluoro-2H-phthalazin-1-one] has a melting point of 170 to 174 °C and an IC50 (B cells in human blood; [1]) of 20 nM.
For `Cn1nc(-c2cccc(-n3ncc4cc(C(C)(C)C)cc(F)c4c3=O)c2CO)cc(Nc2ccn(C[C@@H](O)CO)n2)c1=O` [I-68, 6-tert-Butyl-2-(3-{5-[1-((R)-2,3-dihydroxy-propyl)-1H-pyrazol-3-ylamino]-1-methyl-6-oxo-1,6-dihydro-pyridazin-3-yl}-2-hydroxymethyl-phenyl)-8-fluoro-2H-phthalazin-1-one], the melting point was 245 to 250 °C and the IC50 (B cells in human blood; [1]) was 61 nM.
For `CN1CCN(c2cnc(Nc3cc(-c4cccc(-n5ncc6cc(C(C)(C)C)cc(F)c6c5=O)c4CO)nn(C)c3=O)cn2)CC1` [I-34, 6-tert-Butyl-8-fluoro-2-{2-hydroxymethyl-3-[1-methyl-5-(4-methyl-3,4,5,6-tetrahydro-2H-[1,2′]bipyrazinyl-5′-ylamino)-6-oxo-1,6-dihydro-pyridazin-3-yl]-phenyl}-2H-phthalazin-1-one], the melting point was 235 to 240 °C and the IC50 (B cells in human blood; [1]) was 125 nM.
